Source: US20260337225A1, “SMALL PEPTIDE AND USE THEREOF IN MUCOSAL REPAIR” (FORREST BIO-PHARM (SHENZHEN) CO., LTD., priority 2022, published 2026)
Where “and” joins values, the source holds several entries; their conditions need not be identical. Equal entries are not always repeated. No end group written: not given here.

Experiments:
Rat liver = assay: Animal safety observation: rat liver injury (serum alaninetransaminase activity); format: in vivo; conditions: 14 days; for Alaninetransaminase Activity, Average / Alaninetransaminase Activity: intragastric gavage, rat serum; for Alaninetransaminase Activity, Average: average of 6 rats, saline average P1 35.83333, P2 30.83333; for Alaninetransaminase Activity: individual rats (Rat 1-6)
Method: (§1) The rats were administered with the small peptides via intragastric gavage at doses of 500 mg/kg and 1000 mg/kg daily for 14 days. Changes in body weight were recorded. On day 14, the rats were sacrificed to measure alaninetransaminase (ALT) activity and blood urea nitrogen (BUN) levels in rat serum for assessing whether there was hepatotoxicity and nephrotoxicity in rats.

mucosal repair = assay: Screening of active monomers for mucosal repair effects; conditions: repeated experiments and screening; in words
Source text: The inventors observed the active monomers in the polypeptide mixture of Polimi-1 rice variety by mass spectrometry analysis of the polypeptides from various ordinary rice varieties and Polimi-1 rice variety. The small peptides identical to ordinary rice varieties and with high levels in ordinary rice varieties were excluded by a method of exclusion. Finally, the small peptides with higher levels in Polimi-1 rice variety and lower levels in other ordinary rice varieties were selected for further study, as well as those with higher levels in Polimi-1 rice variety and absent in other ordinary rice varieties. Since peptides with molecular weights below 1500 Daltons were extracted from the mixed polypeptide mixture previously obtained, other peptides above this threshold were excluded.

[1] = test system: normal human kidney-2 cells (HK-02, HK-2); assay: Nephrotoxicity: cytotoxicity in HK-2 cells by CCK-8 assay; format: cell-based; conditions: 10-200 μg/mL, 24 h, in words
Method: Referring to the method from a literature (Sinomenine improve diabetic nephropathy by inhibiting fibrosis and regulating the JAK2/STAT3/SOCS1 pathway in streptozotocin-induced diabetic rats. Life Sci. 2021; 265:118855), normal human kidney-2 cells (HK-02, HK-2) (Shanghai Cell Bank) were seeded into 96-well plates and administered with small peptides P1 and P2 at concentrations of 0 μg/mL, 10 μg/mL, 20 μg/mL, 50 μg/mL, 100 μg/mL, and 200 μg/mL. After 24-hour stimulation, the cytotoxicity was assessed by Cell Counting Kit-8 (CCK-8) assay.

[2] = test system: rat model of chronic gastric ulcer; assay: Rat model of chronic gastric ulcer (anhydrous ethanol followed by aspirin); format: in vivo
Method: The function of the small peptides obtained in Embodiment 2 was validated in the present embodiment by using a rat model of chronic gastric ulcer.
Control group (model group): A rat model of chronic gastric ulcer model was constructed by intragastric administration of anhydrous ethanol (1 mL/200 g), followed by intragastric administration of 200 mg/kg aspirin 2 h later. The rats were administered with aspirin once daily for 4 days. At day 5, the rats were administered with an equal volume of saline.
Blank group: The rats were administered with an equal volume of saline.
Drug treatment groups: A rat model of chronic gastric ulcer was constructed as above-mentioned. At day 5, the rats were respectively administered with the rice polypeptide mixture (50 mg/kg), small peptide P1 (0.5 mg/kg), or small peptide P2 (0.5 mg/kg) twice daily for 3 days. On day 4, the rats were sacrificed and their gastric necropsy was performed.
Positive control group (omeprazole 2.6 mg/kg): A rat model of chronic gastric ulcer was constructed as above. At day 5, the rats were administered with omeprazole (2.6 mg/kg) twice daily for 3 days. On day 4, The rats were sacrificed and their gastric necropsy was performed.
Each group consisted of 10 rats. After 24 h of modeling, the rats were sacrificed to extract the gastric tissue, for measuring gastric pH, and observing changes in ulcer area via gastric tissue dissection. Liver and kidney tissues were collected for pathological section observation to assess drug safety.

[3] = Animal safety observation: rat body weight; format: in vivo; conditions: for Rat body weight: 1000 mg/kg daily, intragastric gavage, individual rats, Rat 1-7 = c1-c7, 1000 mg/kg
Method: as §1

[4] = test system: normal human hepatic parenchymal L-02 cells; assay: Hepatotoxicity: cytotoxicity in L-02 cells by CCK-8 assay; format: cell-based; conditions: 10-200 μg/mL, 24 h, in words
Method: Referring to the method from a literature (Determination of emodin in L-02 cells and cell culture media with liquid chromatography-mass spectrometry: Application to a cellular toxicokinetic study. J Pharm Biomed Anal. 2012; 71:71-78), normal human hepatic parenchymal L-02 cells (obtained from Shanghai Cell Bank) were seeded into 96-well plates and treated with small peptides P1 and P2 at concentrations of 0 μg/mL, 10 μg/mL, 20 μg/mL, 50 μg/mL, 100 μg/mL, and 200 μg/mL. After 24-hour stimulation, the cytotoxicity was assessed by Cell Counting Kit-8 (CCK-8) assay.

[5] = test system: mouse model of acute gastric ulcer; assay: Mouse model of acute gastric ulcer (anhydrous ethanol); format: in vivo
Method: In this embodiment, the function of the small peptides obtained in Embodiment 2 was validated using a mouse model of acute gastric ulcer.
Control group (model group): A mouse mode of acute gastric ulcer was constructed using anhydrous ethanol (0.1 mL/10 g) (referring to the literature of Study on Action of kangfuxin Solution on Experimental Gastric ulcer [J]. Chinese Traditional Patent Medicine, 2001, 23(2): 122-124. DOI: 10.3969/j.issn.1001-1528.). After modeling, the mice were administered with an equal volume of saline.
Blank group: The mice were administered with an equal volume of saline.
Drug treatment groups: A mouse mode of acute gastric ulcer was constructed by treating the mouse with anhydrous ethanol (0.1 mL/10 g). At 2 h, 12 h, and 22 h after modeling, the mice were administered with the rice polypeptide mixture (50 mg/kg) as the mixture group, small peptide P1 (0.5 mg/kg) as the P1 group, and small peptide P2 (0.5 mg/kg) as the P2 group, respectively.
Each group consisted of 8 mice. After 24 h of modeling, the mice were sacrificed, to extract the gastric tissue, and observe changes in bleeding points and ulcer area via gastric tissue dissection.

Rat kidney = assay: Animal safety observation: rat kidney injury (serum blood urea nitrogen levels); format: in vivo; conditions: 14 days; for Blood Urea Nitrogen Levels: intragastric gavage, rat serum, individual rats (Rat 1-6)
Method: as §1

[6] = 500 and 1000 mg/kg daily, rats, in words

For GPSGPELRG [Small peptide P2, GPSGPELRG], the “Alaninetransaminase Activity, Average” value (Rat liver; 500 mg/kg daily) was 29.33 IU/L, the “Alaninetransaminase Activity” value (Rat liver; 500 mg/kg daily) was 34 IU/L (2×) and 42 IU/L and 17 IU/L and 21 IU/L and 28 IU/L and the “Alaninetransaminase Activity, Average” value (Rat liver; 1000 mg/kg daily) was 36.67 IU/L. For the same sequence, the “Alaninetransaminase Activity” value (Rat liver; 1000 mg/kg daily) was 29 IU/L and 43 IU/L and 45 IU/L and 33 IU/L and 32 IU/L and 38 IU/L, the hepatotoxicity (Rat liver; [6]) was “without hepatotoxicity” and the mucosal repair effects (mucosal repair) was “found to have mucosal repair effects”. The “viability of normal human kidney cells HK-02 (HK-2)” value [1] was “no effect”, the nephrotoxicity ([1]; HK-2 cells) was “no nephrotoxicity” and the Ulcer index ([2]; 0.5 mg/kg twice daily for 3 days, 10 rats, ratio of ulcer area to gastric mucosal tissue area, Control group 40.5 ± 5.3) was 5.5 ± 3.7%. For the same sequence, the Ulcer inhibition rate ([2]; 0.5 mg/kg twice daily for 3 days, percentage reduction in ulcer area compared to the Control group) was 86.4%, the anti-ulcer effects ([2]; P1, P2 0.5 mg/kg, mixture 50 mg/kg, in words) was “exhibit anti-ulcer effects” and the “P versus Positive control group” value ([2]; anti-ulcer effects compared to omeprazole 2.6 mg/kg, P1, P2 0.5 mg/kg, mixture 50 mg/kg) was greater than 0.05. The Rat body weight ([3]; Day 1) was 208 g and 215 g and 219 g and 218 g and 217 g (2×) and 214 g, the Rat body weight ([3]; Day 2) was 210 g and 216 g (2×) and 220 g and 221 g and 223 g and 218 g and the Rat body weight ([3]; Day 3) was 211 g and 220 g and 221 g and 222 g and 225 g and 210 g and 219 g. For the same sequence, the Rat body weight ([3]; Day 4) was 213 g and 224 g, the Rat body weight ([3]; Day 5) was 214 g and 225 g (2×) and 229 g (2×) and 221 g and 226 g and the Rat body weight ([3]; Day 6) was 214 g and 226 g and 225 g and 231 g and 230 g and 224 g and 229 g. The Rat body weight ([3]; Day 7) was 215 g and 226 g and 230 g (2×) and 237 g and 232 g and 225 g, the Rat body weight ([3]; Day 8) was 216 g and 229 g (2×) and 233 g and 236 g and 234 g and 232 g and the Rat body weight ([3]; Day 9) was 221 g and 230 g and 235 g (2×) and 239 g and 234 g and 231 g. For the same sequence, the Rat body weight ([3]; Day 10) was 224 g and 231 g and 238 g and 240 g and 239 g and 235 g and 237 g, the Rat body weight ([3]; Day 11) was 225 g and 234 g and 239 g and 242 g (2×) and 238 g and 240 g and the Rat body weight ([3]; Day 12) was 230 g and 235 g and 239 g and 244 g (2×) and 245 g and 240 g. The Rat body weight ([3]; Day 13) was 231 g and 238 g and 240 g and 245 g (2×) and 249 g and 241 g, the Rat body weight ([3]; Day 14) was 235 g and 239 g and 241 g and 248 g and 250 g and 244 g (2×) and the Rat body weight ([3]; Day 15) was 238 g and 241 g and 242 g and 250 g and 252 g and 245 g (2×). The “effects on rat body weight” value ([3]; daily intragastric gavage for 14 days, in words) was “minimal effects”, the “viability of normal human liver cells L-02” value [4] was “no effect” and the hepatotoxicity ([4]; L-02 cells) was “no hepatotoxicity”. The Ulcer index ([5]; 0.5 mg/kg at 2 h, 12 h and 22 h after modeling, 8 mice, ratio of ulcer area to gastric mucosal tissue area, Control group 58.3 ± 10.1) was 7.1 ± 5.5%, the Ulcer inhibition rate ([5]; 0.5 mg/kg at 2 h, 12 h and 22 h after modeling, percentage reduction in ulcer area compared to the Control group) was 87.8% and the “result compared to the mixture group” value ([5]; 0.5 mg/kg versus mixture 50 mg/kg, in words) was “better results than the mixture in larger dose”. The anti-ulcer effects ([5]; 0.5 mg/kg, in words) was “excellent anti-ulcer effects”, the “Blood Urea Nitrogen Levels” value (Rat kidney; 500 mg/kg daily) was 19 mg/dL and 37 mg/dL and 32 mg/dL and 34 mg/dL and 42 mg/dL and 33 mg/dL and the “Blood Urea Nitrogen Levels” value (Rat kidney; 1000 mg/kg daily) was 23 mg/dL and 29 mg/dL and 35 mg/dL and 39 mg/dL and 43 mg/dL and 44 mg/dL. For the same sequence, the nephrotoxicity (Rat kidney; [6]) was “without hepatotoxicity and nephrotoxicity”.
